Assay: Zeta potential (surface potential) measurement after each polyelectrolyte coating
Format: physicochemical
Description: 5 mg paclitaxel or atavoquone was dissolved in 5 mL of a 60% ethanol/water or a 60% acetone/water solution in a glass tube. This solution was ultrasonicated at 100% amplitude for 2 min, and then 1 mL of a 5 mg/mL polylysine, polyethylenimine, or protomine sulphate solution was added. This was then ultrasonicated for 1 min while adding water at certain speeds and volumes (e.g., 1 mL/min until 5 mL to 10 mL was reached). This was then ultrasonicated for another 30 min. After sonication, the zeta potential of the sample was measured to assure recharging of the formed paclitaxel nanocrystals to positive. Layer-by-layer (LbL) coating with 2 layers of BSA/PS (bovine serum albumin/protamine sulfate) was performed (as described in, e.g., WO2009/012303), followed by SEM readings and measurement of zeta potential.
After each coating, a sample was taken and surface potential was measured using a Zeta potential analyzer.
PAH and PSS were alternately added to the curcumin nanoparticles using the LbL procedure. […] PAH adsorption during nanoparticles synthesis converted the potential to +30±2 mV. Next, anionic PSS adsorption changed the potential to −53±2 mV, followed by +19±2 mV with the addition of PAH, and again to −50±2 mV with the addition of PSS. Therefore, multiple layers of polycations and polyanions, i.e., (PAH/PSS)2, were coated onto the curcumin nanoparticles.

Row | Structure (SMILES) | zeta potential (bare, initial potential, FIG. 7) [mV] | zeta potential (initial paclitaxel compound, no coating, FIG. 4)
1 | COc1cc(/C=C/C(=O)CC(=O)/C=C/c2ccc(O)c(OC)c2)ccc1O [bare curcumin microparticles, curcumin] | −50±2 | –
2 | CC(=O)O[C@H]1C(=O)[C@@]2(C)[C@H]([C@H](OC(=O)c3ccccc3)[C@]3(O)C[C@H](OC(=O)[C@H](O)[C@@H](NC(=O)c4ccccc4)c4ccccc4)C(C)=C1C3(C)C)[C@]1(OC(C)=O)CO[C@@H]1C[C@@H]2O [paclitaxel] | – | about −60 mV
